Among the data in BindingDB's records for doi:10.1002/cbic.200800304 (Research Institute, Hospital For Sick Children, 2008) are IC50 values, retold here.

Each structure is given as a SMILES string.

The assay deals with T1, Lysosomal acid glucosylceramidase (Homo sapiens, UniProt P04062).
T1 sequence (P04062 whole entry): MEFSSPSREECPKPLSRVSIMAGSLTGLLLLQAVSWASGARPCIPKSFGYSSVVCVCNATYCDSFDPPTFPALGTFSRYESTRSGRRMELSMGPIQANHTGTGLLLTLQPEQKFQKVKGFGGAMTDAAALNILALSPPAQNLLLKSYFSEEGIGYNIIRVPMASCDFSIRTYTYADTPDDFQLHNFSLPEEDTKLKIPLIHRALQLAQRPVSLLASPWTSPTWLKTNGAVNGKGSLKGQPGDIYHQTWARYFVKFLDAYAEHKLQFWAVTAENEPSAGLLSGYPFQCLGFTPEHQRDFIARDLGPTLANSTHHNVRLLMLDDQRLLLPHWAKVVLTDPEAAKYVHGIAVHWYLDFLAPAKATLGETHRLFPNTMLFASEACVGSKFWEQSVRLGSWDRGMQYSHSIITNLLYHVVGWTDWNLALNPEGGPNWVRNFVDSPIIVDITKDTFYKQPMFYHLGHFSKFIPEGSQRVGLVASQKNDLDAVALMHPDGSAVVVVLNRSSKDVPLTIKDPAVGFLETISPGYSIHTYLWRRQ
Nature of the assay: Inhibiton Assay. The settings on record: pH 5.5; 37 °C. As for the experimental part: Beta-glucocerebrosidase (GCase) activity was measured by release of 4-methylumbelliferyl fluorophore from MUClc.
For the compound `Cc1ccc(Sc2cccc3nc(N)nc(N)c23)cc1`, the IC50 – broadly, the concentration at which inhibition is half-maximal – amounted to 7.8 µM.

For `CC(C)(C)C(=O)Nc1ccncc1` [2,2-dimethyl-N-(4-pyridinyl)propanamide, 2b], the IC50 is greater than 400 µM.

The compound `Nc1nc(N)c2cc([N+](=O)[O-])ccc2n1` [2,4-diamino-6-nitro-quinazoline, 1a] gave an IC50 of 61 µM.

`O=C(Nc1ccncc1)c1ccc(Oc2cc(Cl)cc(Cl)c2)o1` [5-(3,5-dichlorophenoxy)-N-(4-pyrdinyl)-2-furamide, 2] returned an IC50 of 4.7 µM.

As to `CCOc1ccc2c(N)nc(N)nc2c1OCC` [7,8-diethoxy-quinazoline 2,4-diamine, 1b], half-maximal inhibition (IC50) was put at 22 µM.
